# Test results: ChEMBL document CHEMBL1125121, “Synthesis and activity of a potent N-methyl-D-aspartic acid agonist, trans-1-aminocyclobutane-1,3-dicarboxylic acid, and related phosphonic and carboxylic acids” (J Med Chem, 1990)
# Active and inactive are the calls of the source. The calls are words filed in the database; no cut-off is given here.
# Tests used:
# Format in all cases: functional
# [1] = target: T1, Glutamate receptor ionotropic, AMPA (Rattus norvegicus) (UniProt P19491+P19492+P19493+P19490); assay: Antagonistic activity against 5 uM of quis/AMPA at the concentration of 500 uM; ns = not significant
# [2] = target: T2, Glutamate NMDA receptor (Rattus norvegicus) (UniProt P35439+Q00959+Q00960+Q00961+Q62645+Q8VHN2+Q9R1M7); assay: Antagonistic activity against 10 uM of N-methyl-D-aspartate glutamate receptor at the concentration of 500 uM; design: scale not given: the % may be the effect or the level left
# [3] = target: T3, Glutamate receptor ionotropic, kainate (Rattus norvegicus) (UniProt P22756+Q01812+P42260+P42264+Q63273); assay: Antagonistic activity against Ionotropic glutamate receptor kainate at the concentration of 500 uM; ns = not significant
# [4] = target: T2, Glutamate NMDA receptor (Rattus norvegicus); assay: Depression of depolarizing response vs 10 uM N-methyl-D-aspartate glutamate receptor at the concentration of 500 uM; inactive
# [5] = target: T2, Glutamate NMDA receptor (Rattus norvegicus); assay: Depression of depolarizing response vs 10 uM N-methyl-D-aspartate glutamate receptor at the concentration of 500 uM
# [6] = target: T2, Glutamate NMDA receptor (Rattus norvegicus); assay: Antagonistic activity against 10 uM of N-methyl-D-aspartate glutamate receptor at the concentration of 200 uM; design: scale not given: the % may be the effect or the level left
# [7] = target: T3, Glutamate receptor ionotropic, kainate (Rattus norvegicus); assay: Antagonistic activity against Ionotropic glutamate receptor kainate at the concentration of 200 uM; design: scale not given: the % may be the effect or the level left
# [8] = target: T1, Glutamate receptor ionotropic, AMPA (Rattus norvegicus); assay: Antagonistic activity against 5 uM of quis/AMPA at the concentration of 200 uM; design: scale not given: the % may be the effect or the level left
# [9] = target: T2, Glutamate NMDA receptor (Rattus norvegicus); assay: Antagonistic activity against 10 uM of N-methyl-D-aspartate glutamate receptor at the concentration of 500 uM; ns = not significant
# [10] = target: T1, Glutamate receptor ionotropic, AMPA (Rattus norvegicus); assay: Antagonistic activity against 5 uM of quis/AMPA at the concentration of 200 uM; ns = not significant
# [11] = target: T2, Glutamate NMDA receptor (Rattus norvegicus); assay: Depression of depolarizing response vs 10 uM N-methyl-D-aspartate glutamate receptor at the concentration of 200 uM; inactive
# [12] = target: T3, Glutamate receptor ionotropic, kainate (Rattus norvegicus); assay: Antagonistic activity against Ionotropic glutamate receptor kainate at the concentration of 200 uM; ns = not significant
# [13] = target: T2, Glutamate NMDA receptor (Rattus norvegicus); assay: Antagonistic activity against 10 uM of N-methyl-D-aspartate glutamate receptor at the concentration of 100 uM; design: scale not given: the % may be the effect or the level left
# [14] = target: T1, Glutamate receptor ionotropic, AMPA (Rattus norvegicus); assay: Antagonistic activity against 5 uM of quis/AMPA at the concentration of 100 uM; design: scale not given: the % may be the effect or the level left
# [15] = target: T3, Glutamate receptor ionotropic, kainate (Rattus norvegicus); assay: Antagonistic activity against Ionotropic glutamate receptor kainate at the concentration of 100 uM; design: scale not given: the % may be the effect or the level left
SMILES,Activity [1],Activity [3],Activity [4],Activity [5],Activity [6] [%],further results
N[C@]1(C(=O)O)C[C@@H](CCCP(=O)(O)O)C1.N[C@]1(C(=O)O)C[C@H](CCCP(=O)(O)O)C1,inactive,inactive,inactive,,,Activity [2]: 50%
N[C@]1(C(=O)O)C[C@@H](CC(=O)O)C1,,,,0.25,50,
N[C@]1(C(=O)O)C[C@@H](CP(=O)(O)O)C1.N[C@]1(C(=O)O)C[C@H](CP(=O)(O)O)C1,,,inactive,,40,Activity [7]: 25%; Activity [8]: 25%
N[C@]1(C(=O)O)C[C@H](CC(=O)O)C1,inactive,inactive,,0.65,,Activity [9]: inactive
N[C@]1(C(=O)O)C[C@@H](CP(=O)(O)O)C1,,,,,40,Activity [10]: inactive; Activity [11]: inactive; Activity [12]: inactive
NC1(C(=O)O)CC(=CP(=O)(O)O)C1 (configuration not stated),,,inactive,,,Activity [13]: 40%; Activity [14]: 30%; Activity [15]: 25%
